Data as given in ChEMBL document CHEMBL1201862, “PubChem BioAssay data set” (2004).
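In this assay, cells in 96-well plates receive the compound at five concentrations for 48 hours. Endpoints are linearly interpolated between the surrounding concentrations. The concentration for 50% growth inhibition is given as GI50.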 The source made the active and inactive calls. Cut-off read from the data, not from the text of the source: active = GI50 up to about 1.1 µM and inactive = higher.

What was measured:
Assay in all cases: NCI tumour cell line growth inhibition, 48 h
UACC-62 = tested on: UACC-62
SF-539 = tested on: SF-539
OVCAR-5 = tested on: OVCAR-5
A498 = tested on: A498
SK-OV-3 = tested on: SK-OV-3
IGROV-1 = tested on: IGROV-1
OVCAR-3 = tested on: OVCAR-3
SF-295 = tested on: SF-295
MDA-MB-435 = tested on: MDA-MB-435
SK-MEL-2 = tested on: SK-MEL-2
TK-10 = tested on: TK-10
SK-MEL-5 = tested on: SK-MEL-5
K562 = tested on: K562
RPMI-8226 = tested on: RPMI-8226
HOP-62 = tested on: HOP-62
PC-3 = tested on: PC-3
MOLT-4 = tested on: MOLT-4
NCI-H522 = tested on: NCI-H522
SR = tested on: SR
SNB-75 = tested on: SNB-75

Measured: GI50

C/C=C1\CNC1C(=O)O (stereo not given)
inactive: UACC-62 > 100 µM | SF-539 > 100 µM | OVCAR-5 > 100 µM | A498 > 100 µM | SK-OV-3 > 100 µM | IGROV-1 > 100 µM | OVCAR-3 > 100 µM | SF-295 > 100 µM | MDA-MB-435 > 100 µM | SK-MEL-2 > 100 µM | TK-10 > 100 µM | SK-MEL-5 > 100 µM | K562 > 100 µM | RPMI-8226 > 100 µM | HOP-62 > 100 µM | PC-3 > 100 µM

COCCN1C2=CCCCC2=Nc2c(N)nc(N)nc21
inactive: UACC-62 > 100 µM | SF-539 > 100 µM | OVCAR-5 > 100 µM | A498 > 100 µM | SK-OV-3 > 100 µM | MOLT-4 > 100 µM | IGROV-1 > 100 µM | OVCAR-3 38 µM | SF-295 > 100 µM | SK-MEL-2 > 100 µM | TK-10 > 100 µM | NCI-H522 > 100 µM | SK-MEL-5 > 100 µM | K562 > 100 µM | RPMI-8226 > 100 µM | HOP-62 > 100 µM | SR > 100 µM | SNB-75 > 100 µM

COc1cc(OC(=O)c2c(O)cc(O)c(O)c2C)cc(C)c1C(=O)Oc1cc(C)c(C(=O)O)c(O)c1
inactive: UACC-62 > 100 µM | SF-539 > 100 µM | OVCAR-5 > 100 µM | A498 > 100 µM | SK-OV-3 > 100 µM | MOLT-4 > 100 µM | IGROV-1 > 100 µM | OVCAR-3 > 100 µM | SF-295 > 100 µM | SK-MEL-2 > 100 µM | TK-10 > 100 µM | NCI-H522 > 100 µM | SK-MEL-5 > 100 µM | K562 > 100 µM | RPMI-8226 > 100 µM | HOP-62 > 100 µM | SR > 100 µM | SNB-75 > 100 µM

Cc1ccc(C(=O)Nc2ccc(S(=O)(=O)O)c3cc(S(=O)(=O)O)cc(S(=O)(=O)O)c23)cc1N
inactive: UACC-62 > 100 µM | SF-539 > 100 µM | OVCAR-5 > 100 µM | A498 > 100 µM | SK-OV-3 91.6 µM | MOLT-4 > 100 µM | IGROV-1 > 100 µM | OVCAR-3 > 100 µM | SF-295 2.75 µM | SK-MEL-2 > 100 µM | TK-10 > 100 µM | NCI-H522 > 100 µM | SK-MEL-5 > 100 µM | K562 > 100 µM | HOP-62 > 100 µM | PC-3 > 100 µM | SR > 100 µM | SNB-75 > 100 µM

c1cc2[se][se]c3c4cccc5[se][se]c(c(c1)c23)c54
inactive: UACC-62 > 100 µM | SF-539 > 100 µM | OVCAR-5 > 100 µM | A498 > 100 µM | SK-OV-3 > 100 µM | MOLT-4 > 100 µM | IGROV-1 > 100 µM | OVCAR-3 > 100 µM | SF-295 > 100 µM | SK-MEL-2 > 100 µM | TK-10 > 100 µM | NCI-H522 > 100 µM | SK-MEL-5 > 100 µM | K562 > 100 µM | RPMI-8226 > 100 µM | HOP-62 > 100 µM | SR > 100 µM | SNB-75 > 100 µM

COC(=O)C1Cc2c([nH]c3ccccc23)C(c2ccccc2O)N1Cc1ccccc1 (stereo not given)
inactive: UACC-62 25.4 µM | SF-539 27.8 µM | OVCAR-5 > 46.5 µM | A498 28.9 µM | SK-OV-3 30.8 µM | MOLT-4 42.1 µM | IGROV-1 25.5 µM | OVCAR-3 27.7 µM | SF-295 21 µM | SK-MEL-2 21.8 µM | TK-10 34.3 µM | NCI-H522 16.4 µM | SK-MEL-5 27.2 µM | K562 37.5 µM | RPMI-8226 > 100 µM | HOP-62 41.2 µM | SR 28.4 µM | SNB-75 7.05 µM

O=C(Cc1ccccc1)NN1C(=O)/C(=C\c2ccc([N+](=O)[O-])cc2)S/C1=N\c1ccccc1
inactive: UACC-62 61.1 µM | SF-539 > 100 µM | OVCAR-5 > 100 µM | A498 > 100 µM | SK-OV-3 > 100 µM | MOLT-4 55 µM | IGROV-1 > 100 µM | OVCAR-3 47.8 µM | SF-295 > 100 µM | MDA-MB-435 > 100 µM | SK-MEL-2 > 100 µM | TK-10 > 100 µM | SK-MEL-5 > 100 µM | K562 42.5 µM | RPMI-8226 > 100 µM | HOP-62 > 100 µM | SNB-75 > 100 µM

CN(C)Cc1cc(C(=O)/C=C/c2c(F)cccc2Cl)cc(CN(C)C)c1O
inactive: UACC-62 12.3 µM | OVCAR-5 18.4 µM | A498 6.5 µM | SK-OV-3 14.1 µM | MOLT-4 11.1 µM | IGROV-1 5.47 µM | OVCAR-3 9.18 µM | SF-295 11.6 µM | MDA-MB-435 13.8 µM | SK-MEL-2 15.6 µM | TK-10 3.04 µM | SK-MEL-5 15.3 µM | K562 4.09 µM | RPMI-8226 17.2 µM | HOP-62 12 µM | PC-3 13.7 µM | SNB-75 8.53 µM

CSC1C(=O)Nc2ccc3ccccc3c21 (stereo not given)
inactive: UACC-62 17.5 µM | SF-539 17.4 µM | OVCAR-5 > 100 µM | SK-OV-3 > 100 µM | MOLT-4 28.1 µM | IGROV-1 16.6 µM | SF-295 > 100 µM | MDA-MB-435 > 100 µM | SK-MEL-2 27.1 µM | TK-10 16.8 µM | NCI-H522 2.54 µM | SK-MEL-5 21.9 µM | RPMI-8226 3.13 µM | HOP-62 34.3 µM | PC-3 16.3 µM | SNB-75 22.8 µM

Clc1ccccc1/C=C/c1cscn1
inactive: UACC-62 > 100 µM | SF-539 > 100 µM | OVCAR-5 > 100 µM | A498 > 100 µM | SK-OV-3 > 100 µM | MOLT-4 > 100 µM | OVCAR-3 > 100 µM | SK-MEL-2 > 100 µM | TK-10 > 100 µM | NCI-H522 > 100 µM | K562 > 100 µM | RPMI-8226 > 100 µM | HOP-62 > 100 µM | SR > 100 µM | SNB-75 > 100 µM

C=CCCCN1C(=O)C2C3c4ccccc4C(C=O)(c4ccccc43)C2C1=O (stereo not given)
inactive: UACC-62 9.42 µM | OVCAR-5 18.9 µM | SK-OV-3 18.2 µM | MOLT-4 4.57 µM | IGROV-1 13.6 µM | OVCAR-3 9.02 µM | SF-295 9.91 µM | SK-MEL-2 24 µM | TK-10 16.1 µM | NCI-H522 8.57 µM | SK-MEL-5 11.3 µM | K562 3.62 µM | RPMI-8226 6.84 µM | HOP-62 14.5 µM | PC-3 6.18 µM | SR 4.79 µM

Oc1cn(-c2ccc(Cl)cc2)nc1-c1nnc(Nc2ccccc2)o1
inactive: UACC-62 16.6 µM | SF-539 15.3 µM | OVCAR-5 88.7 µM | A498 12.6 µM | SK-OV-3 24.3 µM | IGROV-1 15.2 µM | OVCAR-3 31.8 µM | SF-295 18.9 µM | MDA-MB-435 16.8 µM | SK-MEL-2 20.2 µM | TK-10 18.5 µM | NCI-H522 17.3 µM | SK-MEL-5 11.4 µM | HOP-62 17.7 µM | SNB-75 20.8 µM

CCCCOC(=O)C1CC[C@H]2[C@@H]3CCc4cc(OC(=O)c5cccc6c(=O)c7ccccc7[nH]c56)ccc4[C@H]3CC[C@]12C (stereo not given in full)
inactive: UACC-62 6.84 µM | OVCAR-5 11.3 µM | A498 8.83 µM | SK-OV-3 9.86 µM | MOLT-4 8.81 µM | IGROV-1 8.13 µM | OVCAR-3 8.47 µM | SF-295 8.53 µM | MDA-MB-435 8.63 µM | SK-MEL-2 9.91 µM | TK-10 7.96 µM | NCI-H522 9.64 µM | SK-MEL-5 6.46 µM | K562 9.98 µM | RPMI-8226 9.06 µM | HOP-62 9.35 µM | PC-3 8.71 µM | SNB-75 10.4 µM

Cc1c(C#N)c2nc3ccccc3n2c(=O)/c1=C/Nc1ccc(Cl)cc1
inactive: UACC-62 15.8 µM | SF-539 12.1 µM | OVCAR-5 9.64 µM | A498 15.9 µM | SK-OV-3 14.1 µM | MOLT-4 34.9 µM | IGROV-1 36.1 µM | SF-295 7.71 µM | MDA-MB-435 94.4 µM | SK-MEL-2 14.2 µM | TK-10 14.2 µM | NCI-H522 46.2 µM | SK-MEL-5 19.4 µM | K562 2.72 µM | RPMI-8226 37.8 µM | HOP-62 12.9 µM | SR > 100 µM | SNB-75 7.21 µM

Cn1c2ccccc2n2c(=O)c3cccnc3c(C#N)c12
inactive: SF-539 66.4 µM | OVCAR-5 > 100 µM | A498 > 100 µM | SK-OV-3 > 100 µM | MOLT-4 7.45 µM | OVCAR-3 > 100 µM | SF-295 > 100 µM | MDA-MB-435 > 100 µM | TK-10 > 100 µM | NCI-H522 14.7 µM | SK-MEL-5 9.51 µM | RPMI-8226 > 100 µM | HOP-62 76.2 µM | SNB-75 > 100 µM

CC#CC1C2CCCC1(CSc1ccccc1)NC(=O)O2 (stereo not given)
inactive: UACC-62 > 100 µM | SF-539 > 100 µM | OVCAR-5 > 100 µM | A498 > 100 µM | SK-OV-3 > 100 µM | MOLT-4 30.3 µM | IGROV-1 > 100 µM | OVCAR-3 > 100 µM | SF-295 > 100 µM | SK-MEL-2 > 100 µM | TK-10 > 100 µM | NCI-H522 > 100 µM | SK-MEL-5 > 100 µM | K562 > 100 µM | RPMI-8226 63.8 µM | HOP-62 > 100 µM | SR > 100 µM | SNB-75 > 100 µM
